Values of other authors as cited in paper PMC2936243 (Journal of neurochemistry, 2010).
Marks after values point to notes of the source that are not given here.

Columns and labels:
Settings in all cases: cited from earlier work
[1] = tested on: nAChR subtypes that contain the α1 and α9 subunits
[2] = tested on: unknown site in brain tissue from α7 knockout mice
[3] = tested on: GABAARs that contain the β3 subunit
[4] = tested on: α3* and α6* containing nAChR subtypes

| Substance | binding to α1 and α9 containing nAChRs [1] | residual binding in α7 knockout brain tissue [2] | binding to GABAARs [3] | binding selectivity [4] |
| --- | --- | --- | --- | --- |
| α-bungarotoxin [α-BgTx] | also binds to non-α7 nAChR subtypes including those that contain the α1 and α9 subunits | significant residual α-BgTx binding to an unknown site | binds to a subset of GABAARs that contain the β3 subunit | – |
| monoiodinated α-conotoxin MII [[^125I]-α-CTx MII] | – | – | – | selectively binds to α3* and α6* containing nAChR subtypes |
